What was measured:
[1] = system: isolated normal canine blood vessels; assay: Organ chamber isometric force: relaxation of phenylephrine-contracted vessel rings; set-up: species or system dog; details: for relaxation: maximal dose (3×10^-6 M); for maximal response, percent change in tension from a contraction to phenylephrine: peptide 3 × 10^-6 M, mean ± SEM
Experimental: (§1) The results obtained are expressed as the means ±SEM. In organ chamber studies, n equals the number of dogs from which rings were taken. Rings with and without endothelium were studied in parallel, and Student's t-test for unpaired observations was used to determine statistical significance among the responses of rings with and without endothelium and between responses of arteries and veins. In rat studies, the data were analyzed using ANOVA for repeated measures followed by Fisher's least significant difference test when appropriate within the group. Data between groups were analyzed by Student's unpaired t-test. Statistical significance was determined at p<0.05.
Rings cut from femoral, saphenous, renal and pulmonary arteries and veins obtained from random source mongrel dogs (anesthetized with 30 mg/kg pentobarbital sodium intravenously) were suspended for the measurement of isometric force in organ chambers filled with aerated (95% O2 and 5% CO2) modified Krebs-Ringer bicarbonate solution (composition in mM: 118.3 NaCl, 4.7 KCl, 2.5 CaCl2, 1.2 MgSO4, 1.2 KH2 PO4, 25.0 NaHCO3, 0.026 calcium sodium EDTA, and 11.1 dextrose; control solution) at 37° C. In one-half rings, the endothelium was removed by gently rubbing the intimal surface with a cotton swab wetted with control solution. Each ring was stretched to the optimal point on its length-tension curve as determined by the tension developed to norepinephrine (3×10^-7 M) at each level of stretch. The presence of endothelium was determined at the beginning of the experiment by a relaxation to acetylcholine (10^-6 M) during a contraction to norepinephrine at optimal length. The maximal tension of each ring was determined by norepinephrine (10^-4 M). To study responses to ANP, CNP and VNP, the rings were contracted with phenylephrine (10^-6 M). These contractions averaged 30-40% of the maximal contraction to norepinephrine. The peptides were added cumulatively once the contraction had stabilized.
The following commercially available drugs were used: acetylcholine chloride (Sigma Chemical, St. Louis, Mo.), human ANP and human CNP (Peninsula Laboratories, Belmont, Calif.), L-norepinephrine bitartrate (Sigma), phenylephrine bitartrate (Sigma). All drugs were dissolved in distilled water immediately prior to study, and the concentrations are reported as the final molar concentration (M) in the organ chamber.

normal rats = assay: Cardiorenal actions after intravenous bolus in anesthetized normal rats; type: in vivo, Wistar rats; details: for MAP mean arterial pressure / HR heart rate / RAP right atrial pressure / UKV urine potassium excretion / UNaV urine sodium excretion / UV urine volume / UcGMPV urine cGMP volume / PcGMP plasma cGMP: mean ± SEM; for MAP mean arterial pressure: n = 4
Experimental: as §1
Experiments were conducted in accordance with the Animal Welfare Act. Wistar rats and spontaneously hypertensive rats (SHR) (400 g; Harlan Sprague-Dawley, Indianapolis, Ind.) were anesthetized with Inactin (100 mg/kg; intraperitoneal; BYK Gulden, Konstanz, Germany). The body temperature was maintained between 36° and 38° C. by a heating pad. Tracheostomy was performed; however, the animals were not artificially ventilated. Polyethylene catheters (PE-50; Becton Dickinson Co., Parsippany, N.J.) were placed in the left Jugular vein for infusions of saline and drugs, in the right jugular vein to right atrium to monitor right atrial pressure, and in the carotid artery for the collection of blood samples and to monitor mean arterial pressure. A PE-90 catheter was placed in the bladder for urine collection.
Experiments were conducted in three groups in normal rats: ANP group (n=4), CNP group (n=4), and VNP group (n=4). VNP also was studied in SHR rats (n=4). Intravenous infusions of saline solution (0.9% NaCl) were performed (1 ml/100 gm body weight/hr) through the left jugular vein catheter. After completion of surgery, rats were allowed to stabilize for 30 minutes. In each group, a 15-min baseline period followed. After the baseline period, saline solution (0.9% NaCl) was administered in a bolus fashion (0.1 ml) and was followed by a 15-min period. After the saline period, the peptide (ANP, CNP or VNP) was administered in a bolus fashion (0.1 ml) at 5 μg/kg which was followed by a 15-min period. This was followed by a second bolus (0.1 ml) at 50 μg/kg and a 15-min period. After a 30-min washout, a 15-min recovery period followed. During each experimental period, mean arterial pressure (MAP), heart rate (HR), and right atrial pressure (RAP) were measured. At the midpoint of baseline, second bolus fashion (50 μg/kg) and recovery periods, blood was sampled for plasma cGMP. At the end of each period, urine was measured for volume (UV), and samples were stored for electrolytes and cGMP analysis.
Blood for plasma cGMP analysis was collected into EDTA tubes, immediately placed on ice, and centrifuged at […] at 4° C. Plasma was separated and stored at -20° C. until assay. Urine for cGMP determination was heated to >90° C. before storage. Plasma and urine cGMP were determined by a specific RIA as previously described by A. L. Steiner et al., J. Hypertension, 5 (Suppl. 5) 551-553 (1987).

[2] = normal rats, high dose (50 μg/kg) bolus

CC[C@H](C)[C@@H]1NC(=O)[C@H](CCCNC(=N)N)NC(=O)[C@H](CC(=O)O)NC(=O)[C@H](CCSC)NC(=O)[C@H](CCCNC(=N)N)NC(=O)CNC(=O)CNC(=O)[C@H](Cc2ccccc2)NC(=O)[C@@H](NC(=O)[C@H](CO)NC(=O)[C@H](CO)NC(=O)[C@H](CCCNC(=N)N)NC(=O)[C@H](CCCNC(=N)N)NC(=O)[C@H](CC(C)C)NC(=O)[C@@H](N)CO)CSSC[C@@H](C(=O)N[C@@H](CC(N)=O)C(=O)N[C@@H](CO)C(=O)N[C@@H](Cc2ccccc2)C(=O)N[C@@H](CCCNC(=N)N)C(=O)N[C@@H](Cc2ccc(O)cc2)C(=O)O)NC(=O)CNC(=O)[C@H](CC(C)C)NC(=O)CNC(=O)[C@H](CO)NC(=O)[C@H](CCC(N)=O)NC(=O)[C@H](C)NC(=O)CNC1=O [ANP, atrial natriuretic peptide]
relaxation ([1]; femoral and saphenous arteries): no effects
maximal response, percent change in tension from a contraction to phenylephrine ([1]; femoral artery, with endothelium, phenylephrine 10^-6 M): 10 ± 5%
maximal response, percent change in tension from a contraction to phenylephrine ([1]; femoral artery, without endothelium): 19 ± 12%
maximal response, percent change in tension from a contraction to phenylephrine ([1]; femoral vein, with endothelium): 6 ± 3%
maximal response, percent change in tension from a contraction to phenylephrine ([1]; femoral vein, without endothelium): 4 ± 4%
relaxation ([1]; femoral veins): no effect
maximal response, percent change in tension from a contraction to phenylephrine ([1]; pulmonary artery, with endothelium): 60 ± 7%
maximal response, percent change in tension from a contraction to phenylephrine ([1]; pulmonary artery, without endothelium): 75 ± 8%
maximal response, percent change in tension from a contraction to phenylephrine ([1]; pulmonary vein, with endothelium): 49 ± 5%
maximal response, percent change in tension from a contraction to phenylephrine ([1]; pulmonary vein, without endothelium): 16 ± 3%
maximal response, percent change in tension from a contraction to phenylephrine ([1]; renal artery, with endothelium): 27 ± 6%
maximal response, percent change in tension from a contraction to phenylephrine ([1]; renal artery, without endothelium): 30 ± 6%
maximal response, percent change in tension from a contraction to phenylephrine ([1]; renal vein, with endothelium): 12 ± 3%
maximal response, percent change in tension from a contraction to phenylephrine ([1]; renal vein, without endothelium): 11 ± 4%
maximal response, percent change in tension from a contraction to phenylephrine ([1]; saphenous artery, with endothelium): 0 ± 0%
maximal response, percent change in tension from a contraction to phenylephrine ([1]; saphenous artery, without endothelium): 3 ± 3%
maximal response, percent change in tension from a contraction to phenylephrine ([1]; saphenous vein, with endothelium): 0 ± 0%
maximal response, percent change in tension from a contraction to phenylephrine ([1]; saphenous vein, without endothelium): 0 ± 0%
relaxation ([1]; saphenous veins): no effect
relaxation, % of the contraction to phenylephrine ([1]; systemic arteries (femoral, saphenous and renal)): less than 30%
natriuretic action (in words) (normal rats; in vivo, rat): potent natriuretic
change in MAP and RAP (in words) (normal rats; [2]): significant decrease
change in urine flow, sodium excretion, plasma cGMP and urinary cGMP volume (in words) (normal rats; [2]): increased
MAP mean arterial pressure (normal rats; normal rats, iv bolus 5 μg/kg, 15-min period): 97 ± 12 mmHg
HR heart rate (normal rats; normal rats, iv bolus 5 μg/kg): 353 ± 14 beats/min
RAP right atrial pressure (normal rats; normal rats, iv bolus 5 μg/kg): -2.3 ± 0.8 mmHg
UKV urine potassium excretion (normal rats; normal rats, iv bolus 5 μg/kg): 10.3 ± 3.5 µmol/min
UNaV urine sodium excretion (normal rats; normal rats, iv bolus 5 μg/kg): 13.2 ± 3.5 µmol/min
UV urine volume (normal rats; normal rats, iv bolus 5 μg/kg): 79 ± 10 µL/min
UcGMPV urine cGMP volume (normal rats; normal rats, iv bolus 5 μg/kg): 605 ± 151 pmol/min
HR heart rate (normal rats; normal rats, iv bolus 50 μg/kg): 355 ± 19 beats/min
PcGMP plasma cGMP (normal rats; normal rats, iv bolus 50 μg/kg): 25.7 ± 7.1 pmol/mL
RAP right atrial pressure (normal rats; normal rats, iv bolus 50 μg/kg): -3.8 ± 0.8 mmHg
UKV urine potassium excretion (normal rats; normal rats, iv bolus 50 μg/kg): 24.4 ± 8.7 µmol/min
UNaV urine sodium excretion (normal rats; normal rats, iv bolus 50 μg/kg): 68.2 ± 15.7 µmol/min
UV urine volume (normal rats; normal rats, iv bolus 50 μg/kg): 341 ± 41 µL/min
UcGMPV urine cGMP volume (normal rats; normal rats, iv bolus 50 μg/kg): 2580 ± 505 pmol/min
MAP mean arterial pressure (normal rats; normal rats, recovery period after 30-min washout): 92 ± 11 mmHg
HR heart rate (normal rats; normal rats, recovery period): 368 ± 23 beats/min
PcGMP plasma cGMP (normal rats; normal rats, recovery period): 3.2 ± 0.3 pmol/mL
RAP right atrial pressure (normal rats; normal rats, recovery period): -0.8 ± 0.9 mmHg
UKV urine potassium excretion (normal rats; normal rats, recovery period): 2.4 ± 0.1 µmol/min
UNaV urine sodium excretion (normal rats; normal rats, recovery period): 8.9 ± 3.5 µmol/min
UV urine volume (normal rats; normal rats, recovery period): 48 ± 14 µL/min
UcGMPV urine cGMP volume (normal rats; normal rats, recovery period): 105 ± 63 pmol/min
MAP mean arterial pressure (normal rats; normal rats, second iv bolus 50 μg/kg, 15-min period): 69 ± 7 mmHg

From patent US5583108A, “Vasonatrin peptide and analogs thereof” (Mayo Foundation for Medical Education and Research, priority 1994, dated 1996)
